Measurements published in patent publication US20240384268A1, “Oligonucleotides” (Hudson Institute of Medical Research, priority 2021, published 2024).
In the oligonucleotide strings, read from the 5' end, every base follows the letter of its sugar. An asterisk marks phosphorothioate; unmarked linkages are phosphodiester. Other units and linkages are bracketed, terminal groups are in braces. A string of capitals states the bases alone. d = 2'-deoxy (DNA); m = 2'-O-methyl

Target: T1, human TLR7 (Homo sapiens, UniProt Q9NYK1)
T1 construct: HA; host or cells: 293XL-hTLR7-HA (HEK293)
T1 sequence (Q9NYK1 27-1049): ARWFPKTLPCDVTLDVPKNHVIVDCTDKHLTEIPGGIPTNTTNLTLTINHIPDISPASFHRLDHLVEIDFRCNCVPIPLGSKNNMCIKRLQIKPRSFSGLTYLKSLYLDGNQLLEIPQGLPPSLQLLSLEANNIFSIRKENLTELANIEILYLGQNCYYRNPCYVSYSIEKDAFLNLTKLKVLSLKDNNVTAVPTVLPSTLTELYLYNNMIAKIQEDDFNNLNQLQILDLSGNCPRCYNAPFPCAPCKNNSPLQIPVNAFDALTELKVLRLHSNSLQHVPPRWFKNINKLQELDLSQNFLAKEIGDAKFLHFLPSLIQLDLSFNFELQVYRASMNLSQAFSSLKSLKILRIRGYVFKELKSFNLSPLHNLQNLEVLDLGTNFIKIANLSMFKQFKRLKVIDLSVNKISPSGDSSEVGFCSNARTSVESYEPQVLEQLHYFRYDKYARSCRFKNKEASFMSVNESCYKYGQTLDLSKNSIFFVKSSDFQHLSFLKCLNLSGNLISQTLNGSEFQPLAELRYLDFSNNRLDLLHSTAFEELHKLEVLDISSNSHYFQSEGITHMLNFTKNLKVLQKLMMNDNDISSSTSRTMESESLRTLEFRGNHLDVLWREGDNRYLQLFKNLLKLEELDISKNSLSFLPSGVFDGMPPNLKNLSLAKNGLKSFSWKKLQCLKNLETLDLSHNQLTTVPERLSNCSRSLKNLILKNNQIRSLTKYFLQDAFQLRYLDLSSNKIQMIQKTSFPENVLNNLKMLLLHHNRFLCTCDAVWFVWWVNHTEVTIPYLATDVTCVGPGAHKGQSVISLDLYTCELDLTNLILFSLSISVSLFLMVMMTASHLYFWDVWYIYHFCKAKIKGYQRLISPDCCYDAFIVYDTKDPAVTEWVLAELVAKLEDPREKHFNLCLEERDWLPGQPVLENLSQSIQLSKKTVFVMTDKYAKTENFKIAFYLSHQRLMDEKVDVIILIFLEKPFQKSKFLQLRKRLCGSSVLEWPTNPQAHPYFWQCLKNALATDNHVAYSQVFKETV
Assay: HEK-TLR7 NF-κB-luciferase reporter, R848 stimulation
Type: cell-based
Settings: for TLR7 100 nM (averaged NF-κB-Luciferase level relative to R848 condition): ASO 100 nM; for TLR7 100 nM (averaged NF-κB-Luciferase level relative to R848 condition) / TLR7 500 nM (averaged NF-κB-Luciferase level relative to R848 condition): relative to R848 only, given as fraction; for TLR7 500 nM (averaged NF-κB-Luciferase level relative to R848 condition): ASO 500 nM; for TLR7-100 nM: averaged NF-κB-Luciferase relative to R848: 100 nM ASO, percentage of R848 without ASO (Alharbi et al., 2020)

Substance	TLR7 100 nM (averaged NF-κB-Luciferase level relative to R848 condition)	TLR7 500 nM (averaged NF-κB-Luciferase level relative to R848 condition)	other results
GAAAGGTTATGCAAGG (antisense; LNA-modified, pattern not given here) [CTNN2B-916 LNA KL]	0.166	0.101	–
AACCCCTTTCACCATC (antisense; LNA-modified, pattern not given here) [MB21D1-689 LNA KL]	0.771	0.426	–
CGTATTATAGCCGATT (antisense; LNA-modified, pattern not given here) [NC1 LNA PS 3-10-3]	0.754	0.226	–
AGGACTCCAGATGTTT (antisense; LNA-modified, pattern not given here) [HPRT LNA pos cont]	0.437	0.293	–
mU*mA*mU*mU*mU*C*C*A*C*A*T*G*C*C*C*mA*mG*mU*mG*mU (mU*mA*mU*mU*mU*dC*dC*dA*dC*dA*dT*dG*dC*dC*dC*mA*mG*mU*mG*mU; antisense) [[CDKN2B-AS1]627]	–	–	TLR7-100 nM: averaged NF-κB-Luciferase relative to R848 (HEK-TLR7): 30.54%
AGTGTTGAGATACTCG (antisense; LNA-modified, pattern not given here) [EGFR-3652 LNA KL]	0.559	0.115	–
TCCGCCCAAAGGGAAC (antisense; LNA-modified, pattern not given here) [HPRT LNA-1027 KL]	0.860	0.543	–
TCTTCATCGGCCCTGC (antisense; LNA-modified, pattern not given here) [CAMSAP1-2112 LNA V1]	0.820	0.511	–
CGGCCTCGGAAGCTCT (antisense; LNA-modified, pattern not given here) [MB21D1-168 LNA V1]	0.594	0.139	–
AAAGGACTGAGGAAAG (antisense; LNA-modified, pattern not given here) [CAMSAP1-6273 LNA KL]	0.513	0.267	–
CTGCAGCTTCCTTGTC (antisense; LNA-modified, pattern not given here) [CTNN2B-2136 LNA V1]	0.467	0.053	–
mA*mG*mU*mG*mG*C*A*C*A*T*A*C*C*A*C*mA*mC*mC*mC*mU (AGUGGCACATACCACACCCU; antisense; sugars from the 5' end m5 d10 m5, all phosphorothioate, methylation of C not given here) [[CDKN2B-AS1]495]	–	–	TLR7-100 nM: averaged NF-κB-Luciferase relative to R848 (HEK-TLR7): 41.95%
CCTTGCACGTGGCTTC (antisense; LNA-modified, pattern not given here) [EGFR-1013 LNA V1]	0.617	0.281	–
mA*mA*mG*mC*mA*G*T*C*T*C*C*A*T*G*T*mC*mC*mC*mA*mG (mA*mA*mG*mC*mA*dG*dT*dC*dT*dC*dC*dA*dT*dG*dT*mC*mC*mC*mA*mG; antisense) [[CDKN2B-AS1]2236]	–	–	TLR7-100 nM: averaged NF-κB-Luciferase relative to R848 (HEK-TLR7): 35.69%
CACTTCGTGGGGTCCT (antisense; LNA-modified, pattern not given here) [HPRT LNA-664 V1]	0.868	0.240	–
GACTATACGCGCAATA (antisense; LNA-modified, pattern not given here) [NC5 LNA PS 3-10-3]	0.282	0.098	–

Substance	TLR7 100 nM (averaged NF-κB-Luciferase level relative to R848 condition)	TLR7 500 nM (averaged NF-κB-Luciferase level relative to R848 condition)	other results
ACACTTCGTGGGGTCCTTTT (antisense; 2'-MOE modified, pattern not given here) [HPRT-663 MOE]	–	–	TLR7 100 nM (MOE-modified ASO at 100 nM, averaged NF-κB-Luciferase relative to R848 condition): 0.403; TLR7 500 nM (MOE-modified ASO at 500 nM, averaged NF-κB-Luciferase relative to R848 condition): 0.235
ACGTTCAGTCCTGTCC (antisense; LNA-modified, pattern not given here) [HPRT LNA-294 V1]	0.601	0.136	–
CCCACTTGGCAGACCA (antisense; LNA-modified, pattern not given here) [CTNN2B-1576 LNA V1]	1.024	0.639	–
GTCAAGGGCATATCCT (antisense; LNA-modified, pattern not given here) [HPRT LNA-732 KL]	0.650	0.142	–
mA*mG*mC*mA*mG*T*C*T*C*C*A*T*G*T*C*mC*mC*mA*mG*mG (AGCAGTCTCCATGTCCCAGG; antisense; sugars from the 5' end m5 d10 m5, all phosphorothioate, methylation of C not given here) [[CDKN2B-AS1]2235]	–	–	TLR7-100 nM: averaged NF-κB-Luciferase relative to R848 (HEK-TLR7): 25.50%
ACCACGTCTGCTCTAA (antisense; LNA-modified, pattern not given here) [CAMSAP1-1635 LNA KL]	1.078	0.532	–
AATCCAACAAAGTCTG (antisense; LNA-modified, pattern not given here) [HPRT LNA-692 KL]	0.727	0.433	–
TGTCCTTGCACGTGGC (antisense; LNA-modified, pattern not given here) [EGFR-1016 LNA V1]	0.502	0.199	–
TCCATACCCAAGGCAT (antisense; LNA-modified, pattern not given here) [CTNN2B-2446 LNA V1]	1.056	0.494	–
CTTCGTGGGGTCCTTT (antisense; LNA-modified, pattern not given here) [HPRT LNA-662 V1]	0.685	0.233	–
TGACTGTCTTGAGGGT (antisense; LNA-modified, pattern not given here) [MB21D1-1483 LNA KL]	0.802	0.150	–
GGTCATTACAATAGCT (antisense; LNA-modified, pattern not given here) [HPRT LNA-475 KL]	0.580	0.049	–
mG*mU*mG*mU*mC*C*T*T*C*A*T*G*C*T*T*mU*mG*mG*mA*mU (GUGUCCTTCATGCTTUGGAU; antisense; sugars from the 5' end m5 d10 m5, all phosphorothioate, methylation of C not given here) [[CDKN2B-AS1]1415]	–	–	TLR7-100 nM: averaged NF-κB-Luciferase relative to R848 (HEK-TLR7): 18.05%
GTCCTTGCACGTGGCT (antisense; LNA-modified, pattern not given here) [EGFR-1015 LNA V1]	0.471	0.251	–
TCTTGGCTTCGTGGAG (antisense; LNA-modified, pattern not given here) [MB21D1-521 LNA V1]	1.033	0.288	–
mC*mU*mU*mG*mU*G*A*A*A*A*G*A*T*T*A*mU*mC*mU*mU*mC (mC*mU*mU*mG*mU*dG*dA*dA*dA*dA*dG*dA*dT*dT*dA*mU*mC*mU*mU*mC) [[CDKN2B-AS1]2139]	–	–	TLR7-100 nM: averaged NF-κB-Luciferase relative to R848 (HEK-TLR7): 85.33%; inhibition of R848 sensing by TLR7, short pre-treatment (in words) (HEK-TLR7, 100-500 nM oligo 20-50 min before R848 1 μg/ml): did not inhibit TLR7
